Measured values from the supplement of paper PMC5752671.
Counter-ions that a name gives are not always drawn.

Tests used:
[1] = tested on: HL60; experiment: IC50 (cell viability) (log10 M); details: 4 days
Procedure, shortened: (§1)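 Listed values are the IC50, taken from fitted curves. Each is the log10 M concentration at which a four-parameter curve crosses 50% viability; where that point is not reached, the highest concentration tested is given. Fourteen leukemia cell lines on extracellular-matrix-coated 384-well plates were exposed in duplicate to eight drug concentrations within 10^–12–10^–4 M, and viability was read with CellTiter-Glo after 4 days.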

[2] = tested on: KASUMI1; experiment: IC50 (cell viability) (log10 M); details: 4 days
Procedure, shortened: as §1

[3] = tested on: KG1; experiment: IC50 (cell viability) (log10 M); details: 4 days
Procedure, shortened: as §1

[4] = tested on: MOLM/13; experiment: IC50 (cell viability) (log10 M); details: 4 days
Procedure, shortened: as §1

[5] = tested on: MOLM/16; experiment: IC50 (cell viability) (log10 M); details: 4 days
Procedure, shortened: as §1

[6] = tested on: MV4.11; experiment: IC50 (cell viability) (log10 M); details: 4 days
Procedure, shortened: as §1

[7] = tested on: NB4; experiment: IC50 (cell viability) (log10 M); details: 4 days
Procedure, shortened: as §1

[8] = tested on: OCI-AML2; experiment: IC50 (cell viability) (log10 M); details: 4 days
Procedure, shortened: as §1

[9] = tested on: OCI-AML3; experiment: IC50 (cell viability) (log10 M); details: 4 days
Procedure, shortened: as §1

[10] = tested on: PL-21; experiment: IC50 (cell viability) (log10 M); details: 4 days
Procedure, shortened: as §1

[11] = tested on: SKM1; experiment: IC50 (cell viability) (log10 M); details: 4 days
Procedure, shortened: as §1

[12] = tested on: THP-1; experiment: IC50 (cell viability) (log10 M); details: 4 days
Procedure, shortened: as §1

[13] = tested on: U937; experiment: IC50 (cell viability) (log10 M); details: 4 days
Procedure, shortened: as §1

[14] = tested on: AML.061 (primary AML patient cells); experiment: area under dose-response curve (cell viability), primary AML patient cells (AUC (arbitrary, % viability x log concentration; ComBat batch-corrected)); higher = less sensitive (more viable); details: 4 days; sample type: primary AML patient cells
Procedure, shortened: (§2)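 Before testing, primary AML cells were DNase-thawed, cultured 48 h in IMDM with horse serum, fetal calf serum and low stem cell factor, and enriched for blasts. On extracellular-matrix-coated 384-well plates at 5000 cells/well, they received drugs the next day at eight concentrations within 10^–12–10^–4 M, in duplicate, and CellTiter-Glo viability was recorded after 4 days. The endpoint was area under the fitted four-parameter curve, corrected for batch using ComBat.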

[15] = tested on: AML.074 (primary AML patient cells); experiment: as above; details: 4 days; sample type: primary AML patient cells
Procedure, shortened: as §2

[16] = tested on: AML.077 (primary AML patient cells); experiment: as above; details: 4 days; sample type: primary AML patient cells
Procedure, shortened: as §2

[17] = tested on: AML010 (primary AML patient cells); experiment: as above; details: 4 days; sample type: primary AML patient cells
Procedure, shortened: as §2

[18] = tested on: EOL-1; experiment: IC50 (cell viability) (log10 M); details: 4 days
Procedure, shortened: as §1

Row | SMILES | IC50 (log10 M) [1] | IC50 (log10 M) [2] | IC50 (log10 M) [3] | IC50 (log10 M) [4] | IC50 (log10 M) [5] | IC50 (log10 M) [6] | IC50 (log10 M) [7] | IC50 (log10 M) [8] | IC50 (log10 M) [9] | IC50 (log10 M) [10] | IC50 (log10 M) [11] | IC50 (log10 M) [12] | IC50 (log10 M) [13] | area under dose-response curve [14] | area under dose-response curve [15] | area under dose-response curve [16] | area under dose-response curve [17] | IC50 (log10 M) [18]
1 | CC(=O)Nc1cccc(-n2c(=O)n(C3CC3)c(=O)c3c(Nc4ccc(I)cc4F)n(C)c(=O)c(C)c32)c1 | < -8.34 | -7.17 | -7.87 | -5.77 | > -5 | -6.67 | -7.5 | < -8.34 | < -8.34 | -7.81 | < -8.34 | > -5 | > -5 | 403 | 521 | 482 | 623 | –
2 | CN(C)CCCn1cc(C2=C(c3c[nH]c4ccccc34)C(=O)NC2=O)c2ccccc21 | > -5 | -5.1 | > -5 | -5.97 | -5.55 | -6.66 | > -5 | -5.41 | > -5 | -5.04 | -5.35 | > -5 | > -5 | 830 | ≤ 624 | 717 | 754 | -6.69
3 | Cc1ccccc1-n1c(Cn2cnc3c(N)ncnc32)nc2cccc(C)c2c1=O | > -5 | > -5 | > -5 | > -5 | > -5 | > -5 | > -5 | > -5 | > -5 | > -5 | > -5 | > -5 | > -5 | 685 | 677 | 634 | 778 | > -5
4 | N#CC[C@H](C1CCCC1)n1cc(-c2ncnc3[nH]ccc23)cn1 | > -5 | > -5 | -5.38 | > -5 | -5.35 | -5.01 | > -5 | > -5 | > -5 | > -5 | > -5 | > -5 | -5.57 | ≤ 582 | 647 | 644 | 696 | -5.11
5 | CN(C)CC[C@H](CSc1ccccc1)Nc1ccc(S(=O)(=O)NC(=O)c2ccc(N3CCN(Cc4ccccc4-c4ccc(Cl)cc4)CC3)cc2)cc1[N+](=O)[O-] [ABT-737] | -6.72 | -7.03 | -6.4 | -7.19 | -6.39 | -7.76 | > -6 | -6.99 | > -6 | -6 | -6.03 | -6.33 | -6.16 | 417 | 326 | 515 | 324 | -7.89
6 | NC(=O)c1ccc2nc(-c3ccc(Oc4ccc(Cl)cc4)cc3)[nH]c2c1 [BML 277] | > -5 | > -5 | > -5 | > -5 | -5.35 | > -5 | > -5 | > -5 | > -5 | > -5 | > -5 | > -5 | > -5 | 829 | 759 | 651 | 779 | -5.36
7 | O=C(O)C1(C(=O)O)CCC1.[NH2-].[NH2-].[Pt+2] [Carboplatin] | > -5 | > -5 | > -5 | > -5 | > -5 | -5.34 | > -5 | -5.37 | > -5 | > -5 | > -5 | -5.04 | > -5 | 745 | 658 | 690 | 769 | -5.16
8 | N.N.[Cl][Pt][Cl] [Cisplatin] | > -5 | > -5 | > -5 | > -5 | > -5 | > -5 | > -5 | > -5 | > -5 | > -5 | > -5 | > -5 | > -5 | 855 | 727 | 676 | 784 | > -5
9 | Cn1cc(C2=C(c3cn(C4CCN(Cc5ccccn5)CC4)c4ccccc34)C(=O)NC2=O)c2ccccc21 [Enzastaurin] | > -5 | > -5 | > -5 | > -5 | > -5 | -5.11 | > -5 | > -5 | > -5 | > -5 | > -5 | > -5 | > -5 | 695 | 688 | 726 | 815 | > -5
10 | C#Cc1cccc(Nc2ncnc3cc(OCCOC)c(OCCOC)cc23)c1 [Erlotinib HCl] | > -5 | > -5 | -5.31 | -5.14 | -5.69 | -5.42 | > -5 | > -5 | > -5 | > -5 | -5.01 | > -5 | -5.02 | 803 | 642 | 694 | 758 | -5.67
